Earlier results in US8088413B2, “Methods for improved cryo-chemotherapy tissue ablation” (Nuvue Therapeutics, Inc., priority 2004, dated 2012).

What was measured:
[1] = tested on: human prostate cancer; conditions: pretreatment; temperatures close to 0° C.
[2] = tested on: human prostate cancer cell line, PC3; conditions: free drug given 2 to 4 days prior to freezing; drug and cryo levels individually ineffective

Row | Molecule | effect on cryoinjury [1] | kill efficacy of cryoinjury [2]
1 | Tumor Necrosis Factor-alpha | augments the cryoinjury | 
2 | O=c1[nH]cc(F)c(=O)[nH]1 [5-fluorouracil (5-FU), 5-fluorouracil] |  | increased kill efficacy
